From BindingDB's records for doi:10.1021/jm020911e (Universit&#224, 2002) come the findings set out here.

Structures are written as SMILES.

This assay has as its target Adenosine receptor A3 (Bos taurus). As to the kind of experiment: Displacement of [125I]AB-MECA from Adenosine A3 receptor in bovine cortical membranes in the presence of 20 nM DPCPX. (In a radioligand displacement assay an active substance lowers the binding of a labelled ligand.)
For orientation: Ki means a measure of affinity in units of concentration, obtained from inhibition or displacement. In the case of `CCC(=O)CNc1nc(-c2ccccc2)nc2nc(C)cn12` [1-(7-Methyl-2-phenyl-imidazo[1,2-a][1,3,5]triazin-4-ylamino)-butan-2-one], the Ki is greater than 10000 nM.

In the case of `CC(=O)CNc1nc(-c2ccccc2)nc2nc(C)cn12` [1-(7-Methyl-2-phenyl-imidazo[1,2-a][1,3,5]triazin-4-ylamino)-propan-2-one], the inhibition constant Ki is greater than 10000 nM.

As for `O=C(Nc1nc(-c2ccccc2)nc2nc(-c3ccccc3)cn12)C1CCCC1` [Cyclopentanecarboxylic acid (2,7-diphenyl-imidazo[1,2-a][1,3,5]triazin-4-yl)-amide], the inhibitory constant (Ki) is 1240 nM.

With `CC(C)c1cn2c(NC(=O)C3CCCC3)nc(-c3ccccc3)nc2n1` [Cyclopentanecarboxylic acid (7-isopropyl-2-phenyl-imidazo[1,2-a][1,3,5]triazin-4-yl)-amide], the inhibition constant Ki was 17.4 nM.

With `Cc1cn2c(NC3CCCC3)nc(-c3ccccc3)nc2n1` [Cyclopentyl-(7-methyl-2-phenyl-imidazo[1,2-a][1,3,5]triazin-4-yl)-amine], the Ki was 2250 nM.

Take `CC(=O)Nc1nc(-c2ccccc2)nc2nc(-c3ccccc3)cn12` [N-(2,7-Diphenyl-imidazo[1,2-a][1,3,5]triazin-4-yl)-acetamide]: the Ki amounted to 40 nM.

Turning to `CC(=O)Nc1nc(-c2ccccc2)nc2nc(C)cn12` [N-(7-Methyl-2-phenyl-imidazo[1,2-a][1,3,5]triazin-4-yl)-acetamide], the inhibition constant Ki amounted to 231 nM.
